The nature of the assay: Asthma Daytime Symptom Diary (ADSD) score. Particulars: for LS mean difference versus placebo, ADSD symptom score: Week 12. It is filed as in vivo, human. The text has this: ADSD and ANSD are PRO measures developed by the PRO Consortium′ Asthma Working Group. Both instruments have been designed to measure asthma symptoms in adult and adolescent (12 years of age and older) patients diagnosed with mild to severe asthma. ADSD and ANSD assess asthma severity based on patient self-report of asthma core symptoms.
Other efficacy endpoints included: • Change from baseline in pre- and post-bronchodilator FEV1 and other lung function measurement (peak expiratory flow (PEF), forced vital capacity (FVC), forced expiratory flow (FEF) 25-75%) at each spirometry endpoint. • Asthma Control Questionnaire-5 (ACQ-5) score change from baseline at EOT and at each assessment time point. • Asthma Quality of Life Questionnaire with Standardized Activities (AQLQ(S)) Self-Administered score change from baseline at EOT and at each assessment time point. • Change from baseline at EOT and change from baseline at each week for asthma symptom scores in the morning and evening (ADSD and ANSD). Questionnaire was to be administered daily and score averaged weekly for analysis. • Change from baseline at EOT and change from baseline at each week in number of inhalations/day of albuterol or levalbuterol for symptom relief.
The ADSD and ANSD are PRO measures developed by the PRO Consortium′ Asthma Working Group. Both instruments have been designed to measure asthma symptoms in adult and adolescent (12 years of age and older) patients diagnosed with mild to severe asthma. ADSD and ANSD assess asthma severity based on patient self-report of asthma core symptoms, i.e., difficulty of breathing; wheezing; shortness of breath; chest tightness; chest pain; and cough. Patients were asked to complete the ADSD every night before they went to bed, thinking about their asthma symptoms on that day, from when they got up this morning until then; the ANSD when getting up, thinking about their asthma symptoms from the previous night from when they went to bed until then.
Both the ADSD and ANSD are composed of 6 items rated using an 11-point NRS that ranges from 0=None to 10=As bad as you can imagine (Gater et al. 2016). The participants were to record their daytime and nighttime asthma symptoms in an electronic diary, once in the evening and once in the morning, respectively. The participants were to complete the ADSD and the ANSD.

Take `CC(C)(C=C(C#N)C(=O)N1CCC[C@@H](n2nc(-c3ccc(Oc4ccccc4)cc3F)c3c(N)ncnc32)C1)N1CCN(C2COC2)CC1` (mixture of isomers) [rilzabrutinib, (R)-2-[3-[4-amino-3-(2-fluoro-4-phenoxy-phenyl)pyrazolo[3,4-d]pyrimidin-1-yl]piperidine-1-carbonyl]-4-methyl-4-[4-(oxetan-3-yl)piperazin-1-yl]pent-2-enenitrile]: the “LS mean ADSD change from baseline at Week 12” value runs as follows: (400 mg BID) −0.27; (400 mg TID) −0.43. Further, the “LS mean difference versus placebo, ADSD symptom score” value runs as follows: (400 mg BID, 95% CI −1.03, 0.26, nominal p=0.2377) −0.39; (400 mg TID, 95% CI −1.15, 0.14, nominal p=0.1276) −0.50. Moreover, under “both cohorts, Week 12, all components”, the “ADSD symptom score (in words)” value is “improvement in ADSD and ANSD symptom score”.

For the origin of these results see patent publication US20260345619A1 (Principia Biopharma Inc., priority 2023, published 2026).
